Measurements published in patent US20030027835A1 (priority 1999, published 2003).
Counter-ions that a name gives are not always drawn.

Assays:
rabbit corneal reflex = test: corneal reflex testing in rabbits (local anesthetic effect); type: in vivo
Excerpt: FIG. 4: Local anesthetic effect of TMB (A) and lidocaine (B) as determined in the rabbit corneal reflex. The values represent the median of percentage of inhibition of corneal reflex calculated for each set of 10 stimulations. The x axis represents time (in minutes) following instillations.*P<0.05; **P<0.01 compared with the control group treated with the vehicle (Mann-Whitney U test).
White New-Zealand male rabbits (CEGAV, Les Hauts Noës, Saint Mars d'Egrenne, France) weighing 1.9-2.7 kg were used. Animals were housed individually in cages placed in an air-conditioned (17-21° C.) animal house kept between 45% and 65% relative humidity and with an artificial day/night cycle (12 h-12 h) with light on at 7.30 am.
Test substances are administered as solutions in sterile water (Baxter, Maurepas, France). The concentrations of test substances are expressed as percentage (weight/volume) of active compound (base form). Each test substance at each concentration is tested on the two eyes of 5 animals (i.e. 10 measurements per substance and per concentration). On the day of the study, animals are placed in restraint cages in a quiet room. Twenty to 30 minutes later, a first measurement of the corneal sensitivity is performed. Any animal presenting a partial or complete corneal insensitivity or any ocular lesion before administration is excluded from the study. Immediately after the first measurement, 2×50 μl of test substances or their vehicle are applied to the cornea. The two instillations were undertaken on each eye at a one-minute interval. Corneal sensitivity is subsequently measured at 5, 10, 20, 30, 40, 50 and 60 minutes following the instillations, and then at 2, 3 and 4 hours after the instillations. Corneal sensitivity is measured by touching gently the center of the cornea with a loop-shape nylon yarn (0.3 mm diameter). For each measurement, this operation is repeated 10 times at regular 2 second intervals. The number of stimulations producing a corneal reflex is noted for each set and for each eye.
Results are expressed as percentage of inhibition of the corneal reflex calculated for each set of 10 stimulations:
% inhibition of corneal reflex=10-(number of stimulations inducing a corneal reflex)×10
For each experimental group, median values are determined. The effects of test compounds are compared with those of the vehicle using a Mann-Withney non-parametric U test at each time of measurement. Areas under curves are calculated over the first 60-minute period following instillation for each animal and each concentration by the trapezoidal method of Bourget et al., 1993. The relative potency of TMB) is compared to that of lidocaine hydrochloride from respective mean areas under curves using a covariance analysis.

[1] = tested on: PGE2-induced hyperalgesia; test: PGE2-induced hyperalgesia in the rat (Randall and Selitto test)
[2] = tested on: sodium currents in rat dorsal root ganglia (DRG) neurons; type: cell-based

Compound: CCN(CC)CC(=O)Nc1c(C)cccc1C [lidocaine, lidocaine hydrochloride]
- duration of complete local anesthetic effect (rabbit corneal reflex; 6% concentration): 25 min
- inhibition of corneal reflex (rabbit corneal reflex; 6% concentration, 60 min after instillation): no more inhibition
- local anesthetic activity (rabbit corneal reflex; up to the concentration of 0.3%): inactive

Compound: CN1CC[C@]23c4c5ccc(O)c4O[C@H]2[C@@H](O)C=C[C@H]3[C@H]1C5 [Morphine, morphine]
- % of analgesic activity ([1]; Morphine 0.3 mg/kg s.c., 30 min before test (T1 of FIG. 5)): 22%
- % of analgesic activity ([1]; Morphine 3 mg/kg s.c. (M3 of FIG. 6)): 64%

Compound: CCC(COC(=O)c1cc(OC)c(OC)c(OC)c1)(c1ccccc1)N(C)C.O=C(O)/C=C\C(=O)O (racemic) [Trimebutine, 2-dimethylamino-2-phenylbutyl 3,4,5-trimethoxybenzoate hydrogen maleate]
- blocking rate kon [2]: 35-40 10^−3 s^−1 μM^−1
- duration of local anesthetic effect (rabbit corneal reflex; 0.1% concentration): 20 min
- potency relative to lidocaine (rabbit corneal reflex; comparison of areas under the curve over first 60 min): 17 fold
- duration of complete local anesthesia (rabbit corneal reflex; instillation of 0.3% or 1%): more than 60 min
- concentration giving first significant local anesthetic effects (rabbit corneal reflex; rabbit cornea, instillation): 0.1%
- % of analgesic activity ([1]; Trimebutine 100 mg/kg s.c. (T2 of FIG. 5)): 27%
